Peptide text beside a SMILES is read from it.
Test system: T-cells in HAM/TSP patient PBMC
Assay: Ex vivo spontaneous T-cell proliferation assay using HAM/TSP peripheral blood
Format: cell-based, human
Conditions: HAM/TSP peripheral blood ex vivo culture
Method: Proliferation assays were performed on HAM/TSP patient blood samples with and without the addition of BNZ-γ. These assays evaluated the ability of BNZ-γ to block the function of cytokines, such as IL-2 and IL-15, present in the ex vivo HAM/TSP patient blood culture and prevent spontaneous T-cell proliferation in these samples.
In an ex vivo spontaneous T-cell proliferation assay, PBMC from HAM/TSP patient was cultured at 1×10(6) cells per well of a 96 well plate in RPMI-10% FCS. Increasing concentrations of BNZ-γ peptide were added to each well. As a control, an irrelevant peptide was used in similar fashion. The cells were incubated in a 37° C. CO2 incubator for 3, 4, and 6 days. The amount of 1 μCi of ^3H-thymidine was added to the cells. After an additional 6 hour incubation, cells were harvested their proliferation rate was measured. As indicated in FIG. 4A-FIG. 4D, BNZ-γ peptide inhibits the spontaneous proliferation of T-cells in HAM/TSP culture at a concentration of about 1 μg/ml.
Other immunological markers were additionally measured in this assay. The percentage of the viral specific CD8 cells was measured during the ex vivo culture using viral protein tetramers. The population of CD4+CD25+ cells, a marker of T-cell activation, as well as Ki67 staining, a marker of T-cell proliferation, was monitored in a flow cytometry assay.

CC[C@H](C)[C@H](N)C(=O)N[C@@H](CCCCN)C(=O)N[C@@H](CCC(=O)O)C(=O)N[C@@H](Cc1ccccc1)C(=O)N[C@@H](CC(C)C)C(=O)N[C@@H](CCC(N)=O)C(=O)N[C@@H](CCCNC(=N)N)C(=O)N[C@@H](Cc1ccccc1)C(=O)N[C@H](C(=O)N[C@@H](Cc1c[nH]cn1)C(=O)N[C@H](C(=O)N[C@H](C(=O)N[C@@H](CCC(N)=O)C(=O)N[C@@H](CO)C(=O)N[C@H](C(=O)N[C@H](C(=O)N[C@@H](CC(N)=O)C(=O)N[C@H](C(=O)N[C@@H](CO)C(=O)O)[C@@H](C)O)[C@@H](C)CC)[C@@H](C)CC)C(C)C)[C@@H](C)CC)[C@@H](C)CC [BNZ-γ, I-K-E-F-L-Q-R-F-I-H-I-V-Q-S-I-I-N-T-S] (H-IKEFLQRFIHIVQSIINTS-OH)
percent of live cells by Guava staining: not impacted
